Measurements taken from the supplement of paper PMC10307832.

Experiments:
Assay in all cases: relative viability (nuclei count vs DMSO), 5 days (fraction); higher = more cells survive
RU-SKI 43 + Tozasertib = compound: CC[C@@H](C)CNCC(=O)N1CCC2=C([C@@H]1COC3=CC=CC(=C3)C)C=CS2 [RU-SKI 43] + Cc1cc(Nc2cc(N3CCN(C)CC3)nc(Sc3ccc(NC(=O)C4CC4)cc3)n2)n[nH]1 [Tozasertib] (partner 0.1 µM)
In short: (§1)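 Lung cancer cell lines in 1536-well plates got either a single drug or a fixed anchor-drug dose together with five library-drug doses (not always all listed) in √10 steps, by pin tool, on the day after seeding. Nuclei were counted after 5 days, and relative viability is the treated-to-vehicle ratio of nuclei counts. Values are medians of duplicate plates.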

RU-SKI 43 + Olaparib = compound: CC[C@@H](C)CNCC(=O)N1CCC2=C([C@@H]1COC3=CC=CC(=C3)C)C=CS2 [RU-SKI 43] + O=C(c1cc(Cc2n[nH]c(=O)c3ccccc23)ccc1F)N1CCN(C(=O)C2CC2)CC1 [Olaparib] (partner 8 µM)
In short: as §1

Irinotecan + Linsitinib = compound: CCc1c2c(nc3ccc(OC(=O)N4CCC(N5CCCCC5)CC4)cc13)-c1cc3c(c(=O)n1C2)COC(=O)[C@]3(O)CC [Irinotecan] + C[C@]1(O)C[C@@H](c2nc(-c3ccc4ccc(-c5ccccc5)nc4c3)c3c(N)nccn32)C1 [Linsitinib] (partner 1 µM)
In short: as §1

Irinotecan + Phenformin = compound: CCc1c2c(nc3ccc(OC(=O)N4CCC(N5CCCCC5)CC4)cc13)-c1cc3c(c(=O)n1C2)COC(=O)[C@]3(O)CC [Irinotecan] + N=C(N)NC(=N)NCCc1ccccc1 [Phenformin] (partner 250 µM)
In short: as §1

## NCI-H23
RU-SKI 43 + Tozasertib; first compound 0.1 µM
  relative viability: 0.394
RU-SKI 43 + Tozasertib; first compound 0.3162 µM
  relative viability: 0.393
RU-SKI 43 + Tozasertib; first compound 1 µM
  relative viability: 0.347
RU-SKI 43 + Tozasertib; first compound 3.162 µM
  relative viability: 0.455
RU-SKI 43 + Tozasertib; first compound 10 µM
  relative viability: 0.297
RU-SKI 43 + Olaparib; first compound 0.1 µM
  relative viability: 0.28
RU-SKI 43 + Olaparib; first compound 0.3162 µM
  relative viability: 0.263
RU-SKI 43 + Olaparib; first compound 1 µM
  relative viability: 0.292
RU-SKI 43 + Olaparib; first compound 3.162 µM
  relative viability: 0.326
RU-SKI 43 + Olaparib; first compound 10 µM
  relative viability: 0.279
Irinotecan + Linsitinib; first compound 0.6325 µM
  relative viability: 0.607
Irinotecan + Linsitinib; first compound 2 µM
  relative viability: 0.339
Irinotecan + Linsitinib; first compound 6.325 µM
  relative viability: 0.248
Irinotecan + Linsitinib; first compound 20 µM
  relative viability: 0.281
Irinotecan + Phenformin; first compound 0.6325 µM
  relative viability: 0.586
Irinotecan + Phenformin; first compound 2 µM
  relative viability: 0.647
Irinotecan + Phenformin; first compound 6.325 µM
  relative viability: 0.221
Irinotecan + Phenformin; first compound 20 µM
  relative viability: 0.252

## EPLC-272H
RU-SKI 43 + Tozasertib; first compound 0.1 µM
  relative viability: 0.213
RU-SKI 43 + Tozasertib; first compound 0.3162 µM
  relative viability: 0.226
RU-SKI 43 + Tozasertib; first compound 1 µM
  relative viability: 0.445
RU-SKI 43 + Tozasertib; first compound 3.162 µM
  relative viability: 0.242
RU-SKI 43 + Tozasertib; first compound 10 µM
  relative viability: 0.207
RU-SKI 43 + Olaparib; first compound 0.1 µM
  relative viability: 0.597
RU-SKI 43 + Olaparib; first compound 0.3162 µM
  relative viability: 0.648
RU-SKI 43 + Olaparib; first compound 1 µM
  relative viability: 0.813
RU-SKI 43 + Olaparib; first compound 3.162 µM
  relative viability: 0.697
RU-SKI 43 + Olaparib; first compound 10 µM
  relative viability: 0.64
Irinotecan + Linsitinib; first compound 0.6325 µM
  relative viability: 0.943
Irinotecan + Linsitinib; first compound 2 µM
  relative viability: 0.241
Irinotecan + Linsitinib; first compound 6.325 µM
  relative viability: 0.202
Irinotecan + Linsitinib; first compound 20 µM
  relative viability: 0.287
Irinotecan + Phenformin; first compound 0.6325 µM
  relative viability: 0.25
Irinotecan + Phenformin; first compound 2 µM
  relative viability: 0.244
Irinotecan + Phenformin; first compound 6.325 µM
  relative viability: 0.241
Irinotecan + Phenformin; first compound 20 µM
  relative viability: 0.294

## EBC-1
RU-SKI 43 + Olaparib; first compound 0.1 µM
  relative viability: 0.817
RU-SKI 43 + Olaparib; first compound 0.3162 µM
  relative viability: 0.883
RU-SKI 43 + Olaparib; first compound 1 µM
  relative viability: 0.759
RU-SKI 43 + Olaparib; first compound 3.162 µM
  relative viability: 0.729
RU-SKI 43 + Olaparib; first compound 10 µM
  relative viability: 0.642
Irinotecan + Linsitinib; first compound 0.6325 µM
  relative viability: 0.675
Irinotecan + Linsitinib; first compound 2 µM
  relative viability: 0.405
Irinotecan + Linsitinib; first compound 6.325 µM
  relative viability: 0.211
Irinotecan + Linsitinib; first compound 20 µM
  relative viability: 0.177

## SK-MES-1
RU-SKI 43 + Tozasertib; first compound 0.1 µM
  relative viability: 0.9
RU-SKI 43 + Tozasertib; first compound 0.3162 µM
  relative viability: 1.14
RU-SKI 43 + Tozasertib; first compound 1 µM
  relative viability: 1.04
RU-SKI 43 + Tozasertib; first compound 3.162 µM
  relative viability: 0.924
RU-SKI 43 + Tozasertib; first compound 10 µM
  relative viability: 0.754
RU-SKI 43 + Olaparib; first compound 0.1 µM
  relative viability: 0.643
RU-SKI 43 + Olaparib; first compound 0.3162 µM
  relative viability: 0.775
RU-SKI 43 + Olaparib; first compound 1 µM
  relative viability: 0.762
RU-SKI 43 + Olaparib; first compound 3.162 µM
  relative viability: 0.737
RU-SKI 43 + Olaparib; first compound 10 µM
  relative viability: 0.702
Irinotecan + Linsitinib; first compound 0.6325 µM
  relative viability: 0.997
Irinotecan + Linsitinib; first compound 2 µM
  relative viability: 0.646
Irinotecan + Linsitinib; first compound 6.325 µM
  relative viability: 0.315
Irinotecan + Linsitinib; first compound 20 µM
  relative viability: 0.281
Irinotecan + Phenformin; first compound 0.6325 µM
  relative viability: 0.582
Irinotecan + Phenformin; first compound 2 µM
  relative viability: 0.51
Irinotecan + Phenformin; first compound 6.325 µM
  relative viability: 0.264
Irinotecan + Phenformin; first compound 20 µM
  relative viability: 0.191

## A549
RU-SKI 43 + Olaparib; first compound 0.1 µM
  relative viability: 0.362
RU-SKI 43 + Olaparib; first compound 0.3162 µM
  relative viability: 0.462
RU-SKI 43 + Olaparib; first compound 1 µM
  relative viability: 0.277
RU-SKI 43 + Olaparib; first compound 3.162 µM
  relative viability: 0.278
RU-SKI 43 + Olaparib; first compound 10 µM
  relative viability: 0.291
Irinotecan + Linsitinib; first compound 0.6325 µM
  relative viability: 0.374
Irinotecan + Linsitinib; first compound 2 µM
  relative viability: 0.636
Irinotecan + Linsitinib; first compound 6.325 µM
  relative viability: 0.211
Irinotecan + Linsitinib; first compound 20 µM
  relative viability: 0.0965
Irinotecan + Phenformin; first compound 2 µM
  relative viability: 0.198
Irinotecan + Phenformin; first compound 6.325 µM
  relative viability: 0.113
Irinotecan + Phenformin; first compound 20 µM
  relative viability: 0.0897

## NCI-H2126
RU-SKI 43 + Tozasertib; first compound 0.1 µM
  relative viability: 0.817
RU-SKI 43 + Tozasertib; first compound 0.3162 µM
  relative viability: 0.917
RU-SKI 43 + Tozasertib; first compound 1 µM
  relative viability: 0.962
RU-SKI 43 + Tozasertib; first compound 3.162 µM
  relative viability: 0.854
RU-SKI 43 + Tozasertib; first compound 10 µM
  relative viability: 0.74
RU-SKI 43 + Olaparib; first compound 0.1 µM
  relative viability: 0.903
RU-SKI 43 + Olaparib; first compound 0.3162 µM
  relative viability: 1.07
RU-SKI 43 + Olaparib; first compound 1 µM
  relative viability: 0.936
RU-SKI 43 + Olaparib; first compound 3.162 µM
  relative viability: 0.845
RU-SKI 43 + Olaparib; first compound 10 µM
  relative viability: 0.865
Irinotecan + Linsitinib; first compound 2 µM
  relative viability: 0.414
Irinotecan + Linsitinib; first compound 6.325 µM
  relative viability: 0.355
Irinotecan + Linsitinib; first compound 20 µM
  relative viability: 0.335
Irinotecan + Phenformin; first compound 2 µM
  relative viability: 0.53
Irinotecan + Phenformin; first compound 6.325 µM
  relative viability: 0.355
Irinotecan + Phenformin; first compound 20 µM
  relative viability: 0.285

## NCI-H2087
RU-SKI 43 + Tozasertib; first compound 0.1 µM
  relative viability: 0.264
RU-SKI 43 + Tozasertib; first compound 0.3162 µM
  relative viability: 0.233
RU-SKI 43 + Tozasertib; first compound 1 µM
  relative viability: 0.294
RU-SKI 43 + Tozasertib; first compound 3.162 µM
  relative viability: 0.225
RU-SKI 43 + Tozasertib; first compound 10 µM
  relative viability: 0.225
RU-SKI 43 + Olaparib; first compound 0.1 µM
  relative viability: 0.481
RU-SKI 43 + Olaparib; first compound 0.3162 µM
  relative viability: 0.63
RU-SKI 43 + Olaparib; first compound 1 µM
  relative viability: 0.669
RU-SKI 43 + Olaparib; first compound 3.162 µM
  relative viability: 0.616
RU-SKI 43 + Olaparib; first compound 10 µM
  relative viability: 0.559
Irinotecan + Linsitinib; first compound 0.6325 µM
  relative viability: 0.453
Irinotecan + Linsitinib; first compound 2 µM
  relative viability: 0.313
Irinotecan + Linsitinib; first compound 6.325 µM
  relative viability: 0.252
Irinotecan + Linsitinib; first compound 20 µM
  relative viability: 0.298
Irinotecan + Phenformin; first compound 0.6325 µM
  relative viability: 0.218
Irinotecan + Phenformin; first compound 2 µM
  relative viability: 0.341
Irinotecan + Phenformin; first compound 6.325 µM
  relative viability: 0.192
Irinotecan + Phenformin; first compound 20 µM
  relative viability: 0.176

## EMC-BAC-2
RU-SKI 43 + Tozasertib; first compound 0.1 µM
  relative viability: 0.295
RU-SKI 43 + Tozasertib; first compound 0.3162 µM
  relative viability: 0.235
RU-SKI 43 + Tozasertib; first compound 1 µM
  relative viability: 0.262
RU-SKI 43 + Tozasertib; first compound 3.162 µM
  relative viability: 0.296
RU-SKI 43 + Tozasertib; first compound 10 µM
  relative viability: 0.249
RU-SKI 43 + Olaparib; first compound 0.1 µM
  relative viability: 0.476
RU-SKI 43 + Olaparib; first compound 0.3162 µM
  relative viability: 0.495
RU-SKI 43 + Olaparib; first compound 1 µM
  relative viability: 0.54
RU-SKI 43 + Olaparib; first compound 3.162 µM
  relative viability: 0.487
RU-SKI 43 + Olaparib; first compound 10 µM
  relative viability: 0.486
Irinotecan + Linsitinib; first compound 0.6325 µM
  relative viability: 0.56
Irinotecan + Linsitinib; first compound 2 µM
  relative viability: 0.267
Irinotecan + Linsitinib; first compound 6.325 µM
  relative viability: 0.2
Irinotecan + Linsitinib; first compound 20 µM
  relative viability: 0.242
Irinotecan + Phenformin; first compound 0.6325 µM
  relative viability: 0.336
Irinotecan + Phenformin; first compound 2 µM
  relative viability: 0.399
Irinotecan + Phenformin; first compound 6.325 µM
  relative viability: 0.271
Irinotecan + Phenformin; first compound 20 µM
  relative viability: 0.276

## SW 900
RU-SKI 43 + Tozasertib; first compound 0.1 µM
  relative viability: 0.671
RU-SKI 43 + Tozasertib; first compound 0.3162 µM
  relative viability: 0.553
RU-SKI 43 + Tozasertib; first compound 1 µM
  relative viability: 0.54
RU-SKI 43 + Tozasertib; first compound 3.162 µM
  relative viability: 0.45
RU-SKI 43 + Tozasertib; first compound 10 µM
  relative viability: 0.512
RU-SKI 43 + Olaparib; first compound 0.1 µM
  relative viability: 0.94
RU-SKI 43 + Olaparib; first compound 0.3162 µM
  relative viability: 0.952
RU-SKI 43 + Olaparib; first compound 1 µM
  relative viability: 0.821
RU-SKI 43 + Olaparib; first compound 3.162 µM
  relative viability: 0.814
RU-SKI 43 + Olaparib; first compound 10 µM
  relative viability: 0.806
Irinotecan + Phenformin; first compound 0.6325 µM
  relative viability: 0.425
Irinotecan + Phenformin; first compound 2 µM
  relative viability: 0.664
Irinotecan + Phenformin; first compound 6.325 µM
  relative viability: 0.447
Irinotecan + Phenformin; first compound 20 µM
  relative viability: 0.37

## NCI-H1623
RU-SKI 43 + Tozasertib; first compound 0.1 µM
  relative viability: 0.447
RU-SKI 43 + Tozasertib; first compound 0.3162 µM
  relative viability: 0.42
RU-SKI 43 + Tozasertib; first compound 1 µM
  relative viability: 0.71
RU-SKI 43 + Tozasertib; first compound 3.162 µM
  relative viability: 0.386
RU-SKI 43 + Tozasertib; first compound 10 µM
  relative viability: 0.399
Irinotecan + Phenformin; first compound 0.6325 µM
  relative viability: 0.548
Irinotecan + Phenformin; first compound 2 µM
  relative viability: 0.696
Irinotecan + Phenformin; first compound 6.325 µM
  relative viability: 0.233
Irinotecan + Phenformin; first compound 20 µM
  relative viability: 0.219
